Reference: patent US6528494B2 (priority 1996, dated 2003)
Counter-ions that a name gives are not always drawn.

Experiments:
Type in all cases: cell-based
adenosine 3 receptor = molecular target: T1, adenosine 3 receptor (Homo sapiens, UniProt P0DMS8); assay: Agonist activity against adenosine 3 receptor (CHO cells, forskolin-enhanced cAMP/SPAP reporter); details: CHO cells transfected with human receptor; forskolin-enhanced cAMP via SPAP; mean of all the versions tested
T1 sequence (P0DMS8 1-318): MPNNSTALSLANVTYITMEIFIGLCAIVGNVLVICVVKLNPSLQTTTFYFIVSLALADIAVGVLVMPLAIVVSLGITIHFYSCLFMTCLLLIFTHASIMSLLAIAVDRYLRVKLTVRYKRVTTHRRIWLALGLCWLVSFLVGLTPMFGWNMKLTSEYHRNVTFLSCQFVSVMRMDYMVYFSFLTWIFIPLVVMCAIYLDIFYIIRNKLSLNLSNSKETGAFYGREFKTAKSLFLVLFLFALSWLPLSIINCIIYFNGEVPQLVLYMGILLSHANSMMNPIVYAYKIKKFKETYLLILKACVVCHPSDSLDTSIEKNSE
Method: (§1) (1) Agonist activity against adenosine 2a, adenosine 1 and adenosine 3 receptor subtypes.
(§2) The effect of test compounds was determined by their effects on basal levels of cAMP (A2a) or on forskolin-enhanced cAMP (A1 and A3) as reflected by changes in levels of SPAP.

adenosine 1 receptor = molecular target: T2, adenosine 1 receptor (Homo sapiens, UniProt P30542); assay: Agonist activity against adenosine 1 receptor (CHO cells, forskolin-enhanced cAMP/SPAP reporter); details: CHO cells transfected with human receptor; forskolin-enhanced cAMP via SPAP; mean of all the versions tested
T2 sequence (P30542 1-326): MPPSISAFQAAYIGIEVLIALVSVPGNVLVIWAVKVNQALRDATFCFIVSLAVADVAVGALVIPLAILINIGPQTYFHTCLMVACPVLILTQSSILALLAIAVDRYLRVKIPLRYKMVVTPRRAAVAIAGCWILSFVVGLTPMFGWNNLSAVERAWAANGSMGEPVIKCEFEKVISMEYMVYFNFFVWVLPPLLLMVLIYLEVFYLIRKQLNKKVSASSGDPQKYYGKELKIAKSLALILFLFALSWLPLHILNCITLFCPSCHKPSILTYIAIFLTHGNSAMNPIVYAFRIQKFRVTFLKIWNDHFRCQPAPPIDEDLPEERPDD
Method: as §1, §2

adenosine 2a receptor = adenosine 2a receptor (Homo sapiens, UniProt P29274); assay: Agonist activity against adenosine 2a receptor (CHO cells, cAMP/SPAP reporter); details: CHO cells transfected with human receptor; basal cAMP via SPAP; mean of all the versions tested
Method: as §1, §2

Sequence of adenosine 2a receptor (P29274 whole entry): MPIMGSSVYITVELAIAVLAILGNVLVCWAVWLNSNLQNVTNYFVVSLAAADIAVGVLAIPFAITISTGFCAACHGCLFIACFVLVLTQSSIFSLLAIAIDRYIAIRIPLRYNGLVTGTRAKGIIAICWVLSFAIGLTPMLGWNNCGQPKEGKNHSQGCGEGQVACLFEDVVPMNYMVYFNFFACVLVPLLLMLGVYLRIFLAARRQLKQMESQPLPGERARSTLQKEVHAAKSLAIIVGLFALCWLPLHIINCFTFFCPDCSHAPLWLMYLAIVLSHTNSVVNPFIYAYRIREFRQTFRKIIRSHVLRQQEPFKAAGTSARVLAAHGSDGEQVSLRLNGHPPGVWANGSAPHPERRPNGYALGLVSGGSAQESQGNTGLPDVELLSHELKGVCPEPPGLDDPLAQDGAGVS

Row | SMILES | A3 EC50 as a ratio of that of NECA (adenosine 3 receptor) | A1 EC50 as a ratio of that of NECA (adenosine 1 receptor) | A2a EC50 as a ratio of that of NECA (adenosine 2a receptor)
1 | CCn1nnc([C@H]2O[C@@H](n3cnc4c(NCC(c5ccccc5)c5ccccc5)nc(NCCN)nc43)[C@H](O)[C@@H]2O)n1 [Example 83, (2R,3R,4S,5R)-2-[2-(2-Amino-ethylamino)-6-(2,2-diphenyl-ethylamino)-purin-9-yl]-5-(2-ethyl-2H-tetrazol-5-yl)-tetrahydro-furan-3,4-diol] | >362 | 130.10 | 4.82
2 | CCn1nnc(C2OC(n3cnc4c(NCCC5CCCCC5)nc(NC5CCNC5)nc43)C(O)C2O)n1 [Example 73, (2R,3R,4S,5R)-2-[6-(2-Cyclohexyl-ethylamino)-2-(pyrrolidin-3S-ylamino)-purin-9-yl]-5-(2-ethyl-2H-tetrazol-5-yl)-tetrahydro-furan-3,4-diol bis(Formate)] | >171 | 818.40 | 5.75
3 | Cn1nnc(C2OC(n3cnc4c(NCC(c5ccccc5)c5ccccc5)nc(NCCN5CCCCC5)nc43)C(O)C2O)n1.O=CO.O=CO (stereo not drawn) [Example 26] | >329 | 241.4 | 0.86
4 | CCn1nnc(C2OC(n3cnc4c(NCC(c5ccccc5)c5ccccc5)nc(NC5CCNC5)nc43)C(O)C2O)n1 [Example 84, (2R,3R,4S,5R)-2-[6-(2,2-Diphenyl-ethylamino)-2-(pyrrolidin-3S-ylamino)-purin-9-yl]-5-(2-ethyl-2H-tetrazol-5-yl)-tetrahydro-furan-3,4-diol bis(Trifluoroacetate)] | >103 | 490.80 | 2.50
5 | CCn1nnc(C2OC(n3cnc4c(NC5CCCC5)nc(NC5CCC(N)CC5)nc43)C(O)C2O)n1.O=CO.O=CO [Example 101, (2R,3R,4S,5R)-2-[2-(trans-4-Amino-cyclohexylamino)-6-cyclopentylamino-purin-9-yl]-5-(2-ethyl-2H-tetrazol-5-yl)-tetrahydro-furan-3,4-diol bis(Formate)] | >195 | 39.00 | 1.51
6 | CCC(CC)Nc1nc(NCCN2CCCCC2)nc2c1ncn2C1OC(c2nnn(C(C)C)n2)C(O)C1O.O=CO.O=CO [Example 68, (2R,3R,4S,5R)-2-[6-(1-Ethyl-propylamino)-2-(2-piperidin-1-yl-ethylamino)-purin-9-yl]-5-(2-isopropyl-2H-tetrazol-5-yl)-tetrahydro-furan-3,4-diol bis(Formate)] | >331 | 56.20 | 3.50
7 | CCn1nnc(C2OC(n3cnc4c(NCCc5ccccc5)nc(NC5CCN(Cc6ccccc6)C5)nc43)C(O)C2O)n1.O=CO.O=CO [Example 75, (2R,3R,4S,5R)-2-[2-(1-Benzyl-pyrrolidin-3-ylamino)-6-phenethylamino-purin-9-yl]-5-(2-ethyl-2H-tetrazol-5-yl)-tetrahydro-furan-3,4-diol bis(Formate)] | >174 | 121.50 | 1.40
8 | CCn1nnc(C2OC(n3cnc4c(NC5CCCC5)nc(NC(CO)Cc5ccccc5)nc43)C(O)C2O)n1 [Example 71, (2R,3R,4S,5R)-2-[6-Cyclopentylamino-2-(1S-hydroxymethyl-2-phenyl-ethylamino)-purin-9-yl]-5-(2-ethyl-2H-tetrazol-5-yl)-tetrahydro-furan-3,4-diol Formate] | >158 | 14.78 | 1.99
9 | CCC(CC)Nc1nc(NCCc2cn(C)cn2)nc2c1ncn2[C@@H]1O[C@H](c2nnn(C(C)C)n2)[C@@H](O)[C@H]1O.O=CO [Example 59, (2R,3R,4S,5R)-2-{6-(1-Ethyl-propylamino)-2-[2-(1-methyl-1H-imidazol-4-yl)-ethylamino]-purin-9-yl}-5-(2-isopropyl-2H-tetrazol-5-yl)-tetrahydro-furan-3,4-diol Formate] | >749 | 92.30 | 2.34
10 | Cn1nnc(C2OC(n3cnc4c(NCC(c5ccccc5)c5ccccc5)nc(NC5CCC(N)CC5)nc43)C(O)C2O)n1.O=CO.O=CO [Example 93, (2R,3R,4S,5R)-2-[2-(trans-4-Amino-cyclohexylamino)-6-(2,2-diphenyl-ethylamino)-purin-9-yl]-5-(2-methyl-2H-tetrazol-5-yl)-tetrahydro-furan-3,4-diol Diformate] | >153 | 922.00 | 5.07
11 | CCC(CC)Nc1nc(NCCN2CCOCC2)nc2c1ncn2C1OC(c2nnn(C)n2)C(O)C1O.O=CO.O=CO [Example 91, (2R,3R,4S,5R)-2-[6-(1-Ethyl-propylamino)-2-(2-morpholin-4-yl-ethylamino)-purin-9-yl]-5-(2-methyl-2H-tetrazol-5-yl)-tetrahydro-furan-3,4-diol Diformate] | >270 | >7461.00 | 1.75
12 | CCn1nnc([C@H]2O[C@@H](n3cnc4c(N)nc(NCCc5cn(C)cn5)nc43)[C@H](O)[C@@H]2O)n1.O=CO [Example 54, (2R,3R,4S,5R)-2-{6-Amino-2-[2-(1-methyl-1H-imidazol-4-yl)-ethylamino]-purin-9-yl}-5-(2-ethyl-2H-tetrazol-5-yl)-tetrahydro-furan-3,4-diol Formate] | >175 | 267.60 | 1.16
13 | CCn1nnc([C@H]2O[C@@H](n3cnc4c(N)nc(Nc5ccc(F)cc5)nc43)[C@H](O)[C@@H]2O)n1.O=C(O)C(F)(F)F [Example 13, (2R,3R,4S,5R)-2-[6-Amino-2-(4-fluoro-phenylamino)-purin-9-yl]-5-(2-ethyl-2H-tetrazol-5-yl)-tetrahydro-furan-3,4-diol Trifluoroacetate] | >232 | 266.9 | 0.64
14 | CCn1nnc([C@H]2O[C@@H](n3cnc4c(N)nc(NCCc5ccc(OC)c(OC)c5)nc43)[C@H](O)[C@@H]2O)n1.O=C(O)C(F)(F)F [Example 20, (2R,3R,4S,5R)-2-{6-Amino-2-[2-(3,4-dimethoxy-phenyl)-ethylamino]-purin-9-yl}-5-(2-ethyl-2H-tetrazol-5-yl)-tetrahydro-furan-3,4-diol Trifluoroacetate] | >183 | 253 | 0.14
15 | CC(=O)O.CCn1nnc([C@H]2O[C@@H](n3cnc4c(NCCC(C)(C)C)nc(NCCNc5ccccn5)nc43)[C@H](O)[C@@H]2O)n1 [Example 51, (2R,3R,4S,5R)-2-{6-(3,3-Dimethyl-butylamino)-2-[2-(pyridin-2-ylamino)-ethylamino]-purin-9-yl}-5-(2-ethyl-2H-tetrazol-5-yl)-tetrahydro-furan-3,4-diol Acetate] | >42 | 144.00 | 1.46
